Data on 5 molecules can be found in patent US10377998B2, “CRISPR-CAS systems and methods for altering expression of gene products, structural information and inducible modular CAS enzymes” (The Broad Institute, Inc., priority 2013, dated 2019).

One test has as its system Factor VII. The conditions noted are these: LNP siRNA systems containing these lipids, hepatocytes in vivo; cited from earlier work.
The nature of test [1]: Double nicking indel formation with sgRNA pairs. Conditions: substitution of Cas9n in double nicking, eukaryotic system. In kind it is cell-based. The text has this: Aspects of the invention relate to the expression of the gene product being decreased or a template polynucleotide being further introduced into the DNA molecule encoding the gene product or an intervening sequence being excised precisely by allowing the two 5′ overhangs to reanneal and ligate or the activity or function of the gene product being altered or the expression of the gene product being increased. In an embodiment of the invention, the gene product is a protein. Only sgRNA pairs creating 5′ overhangs with less than 8 bp overlap between the guide sequences (offset greater than −8 bp) were able to mediate detectable indel formation. […] Nonetheless, a pair of sgRNAs that will generate a 5′ overhang with Cas9n should in principle generate the corresponding 3′ overhang instead, and double nicking. […] Accordingly, in some embodiments, a recombination template is also provided. A recombination template may be a component of another vector as described herein, contained in a separate vector, or provided as a separate polynucleotide. In some embodiments, a recombination template is designed to serve as a template in homologous recombination, such as within or near a target sequence nicked or cleaved by a CRISPR enzyme as a part of a CRISPR complex. […]

As for “1,2-dilinoleyloxy-keto-N,N-dimethyl-3-aminopropane [DLinKDMA]”, the “gene silencing potency series” value in the test with Factor VII is “DLinKC2-DMA>DLinKDMA>DLinDMA>>DLinDAP”.
Take `CCCCC/C=C\C/C=C\CCCCCCCC(=O)OCC(CN(C)C)OC(=O)CCCCCCC/C=C\C/C=C\CCCCC` (centres unmarked) [DLinDAP, 1,2-dilineoyl-3-dimethylammonium-propane]: the “gene silencing potency series” value in the test with Factor VII is given as “DLinKC2-DMA>DLinKDMA>DLinDMA>>DLinDAP”.
In the case of `CCCCC/C=C\C/C=C\CCCCCCCCOCC(CN(C)C)OCCCCCCCC/C=C\C/C=C\CCCCC` (centres unmarked) [DLinDMA, 1,2-dilinoleyloxy-3-N,N-dimethylaminopropane], the “gene silencing potency series” value with Factor VII was “DLinKC2-DMA>DLinKDMA>DLinDMA>>DLinDAP”.
For `CCCCC/C=C\C/C=C\CCCCCCCCC1(CCCCCCCC/C=C\C/C=C\CCCCC)OCC(CCN(C)C)O1` (centres unmarked) [DLinKC2-DMA, 1,2-dilinoleyl-4-(2-dimethylaminoethyl)-[1,3]-dioxolane], the “gene silencing potency series” value in the test on Factor VII is “DLinKC2-DMA>DLinKDMA>DLinDMA>>DLinDAP”.
Consider Cas9H840A: Cas9 with H840A mutation, for which, in test [1], the “indel formation with sgRNA pair” value is reported as “no indel formation is observed”.
